Read-outs that look alike come from different tables or passages of the source.
What was measured:
[1] = tested on: C32 human melanoma cells; test: cell viability in the C32 cell-based assay (Viability, C32 IC50); details: Homo sapiens, concentration causing 50% cell death, values greater than 10 represent a lack of cell death
Experimental: (§1) The cell based assay was performed in two different cell types, B16 and C32. Cell viability was also assessed in the second, cell-based assay.
(§2) The “Compound Number” in the table corresponds to the compound disclosed in the Example of the same number. […] The results of the cell based assays (performed in two different cell systems, i.e. B16 mouse melanoma or C32 human melanoma cells) are expressed as “GM3 B16 IC50” or “GM3 C32 IC50” for the B16 assay and the C32 assay, respectively. […] The results of the viability assays are expressed as “Viability, B16 IC50” or “Viability, C32 IC50”, respectively. These values represent the concentration of the compound causing 50% cell death. Values greater than 10 represent a lack of cell death.

[2] = tested on: GM3 expression on the cell surface, C32 human melanoma cells; test: cell based phenotypic assay, cell surface GM3 by antibody mediated immunofluorescence, C32 (GM3 C32 IC50); details: 50% inhibition of GM3 expression on the cell surface
Experimental: as §1, §2

[3] = tested on: GM3 expression on the cell surface, B16 mouse melanoma cells; test: cell based phenotypic assay, cell surface GM3 by antibody mediated immunofluorescence, B16 (GM3 B16 IC50); details: 50% inhibition of GM3 expression on the cell surface
Experimental: as §1, §2

[4] = target: T1, glucosylceramide synthase (Homo sapiens, UniProt Q16739); test: microsomal assay measuring conversion of ceramide to glucosylceramide by HPLC (GCS IC50); format: biochemical; details: concentration causing 50% inhibition of glucosylceramide synthase activity
T1 construct: Microsomes were isolated from A375 human melanoma cells; endogenous in cells; host or cells: A375 human melanoma cells (microsomal fraction, 100,000 g pellet)
T1 sequence (Q16739 1-394): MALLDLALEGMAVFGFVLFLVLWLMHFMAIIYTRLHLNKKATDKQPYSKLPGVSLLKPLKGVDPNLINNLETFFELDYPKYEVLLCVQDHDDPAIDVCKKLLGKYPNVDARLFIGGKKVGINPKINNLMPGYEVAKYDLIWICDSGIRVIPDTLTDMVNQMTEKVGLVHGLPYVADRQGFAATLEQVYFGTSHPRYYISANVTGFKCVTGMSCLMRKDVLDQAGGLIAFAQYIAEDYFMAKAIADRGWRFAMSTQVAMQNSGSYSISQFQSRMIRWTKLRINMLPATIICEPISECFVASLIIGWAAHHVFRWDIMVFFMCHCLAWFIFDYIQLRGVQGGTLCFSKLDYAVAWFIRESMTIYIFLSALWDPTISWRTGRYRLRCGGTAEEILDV
Experimental: Inhibition of glucosylceramide synthase activity for certain compounds of the invention were measured with 1) a microsomal assay that directly measures the conversion of ceramide to glucosylceramide by HPLC and 2) second, cell based, phenotypic assay that monitors cell surface expression of the downstream lipid GM3 by antibody mediated immunofluorescence. The cell based assay was performed in two different cell types, B16 and C32. Cell viability was also assessed in the second, cell-based assay.
The “Compound Number” in the table corresponds to the compound disclosed in the Example of the same number. The results of the microsomal assay are expressed as “GCS IC50”, which represents the concentration of the compound causing 50% inhibition of glucosylceramide synthase activity. The results of the cell based assays (performed in two different cell systems, i.e. B16 mouse melanoma or C32 human melanoma cells) are expressed as “GM3 B16 IC50” or “GM3 C32 IC50” for the B16 assay and the C32 assay, respectively. These values represent the concentration of the compound causing 50% inhibition of GM3 expression on the cell surface. The results of the viability assays are expressed as “Viability, B16 IC50” or “Viability, C32 IC50”, respectively. These values represent the concentration of the compound causing 50% cell death. Values greater than 10 represent a lack of cell death.

[5] = tested on: B16 mouse melanoma cells; test: cell viability in the B16 cell-based assay (Viability, B16 IC50); details: Mus musculus
Experimental: as §1, §2

[6] = C32, C32 cells, read-out: Viability, C32 IC50
[7] = Homo sapiens, C32 human melanoma cells, read-out: GM3 C32 IC50
[8] = Mus musculus, B16 mouse melanoma cells, read-out: GM3 B16 IC50
[9] = B16, B16 cells, concentration causing 50% cell death, values greater than 10 represent a lack of cell death, read-out: Viability, B16 IC50
[10] = C32, read-out: Viability, C32 IC50, C32 cells
[11] = Homo sapiens, read-out: GM3 C32 IC50, C32 human melanoma cells
[12] = Mus musculus, read-out: GM3 B16 IC50, B16 mouse melanoma cells
[13] = B16, read-out: Viability, B16 IC50

IC50 [2, 7] [nM]	IC50 [3, 8] [nM]	IC50 [4] [nM]	IC50 ([2]; C32 human melanoma cells, read-out: GM3 C32 IC50) [nM]	IC50 ([3]; B16 mouse melanoma cells, read-out: GM3 B16 IC50) [nM]	SMILES	IC50 [1, 6] [nM]	IC50 [5, 9] [nM]	IC50 [1, 10] [nM]	IC50 [2, 11] [nM]	IC50 [3, 12] [nM]	IC50 [5, 13] [nM]
6.16	220	24	–	–	COCCOCc1ccc(-c2ccc(C(C)(C)NC(=O)OC3CCN4CCC3CC4)cc2)cc1 (stereo not shown) [Example 200, 1-Azabicyclo[3.2.2]nonan-4-yl (2-(4′-((2-methoxyethoxy)methyl)-[1,1′-biphenyl]-4-yl)propan-2-yl)carbamate]	1000	≥ 10000	–	–	–	–
0.436	78.5	3.38	–	–	COCCCOc1ccc(-c2ccnc(N3CCC(OC)(C(=O)NC4(C)CCN5CCC4CC5)CC3)n2)cc1 (stereo not shown) [Example 101, 4-Methoxy-1-(4-(4-(3-methoxypropoxy)phenyl)pyrimidin-2-yl)-N-(4-methyl-1-azabicyclo[3.2.2]nonan-4-yl)piperidine-4-carboxamide]	1000	2030	–	–	–	–
95.6	1820	324	–	–	COCc1ccc(-c2ncnc(N3CCN(C(=O)NC4(C)CCN5CCC4CC5)CC3C(C)C)n2)cc1 (stereo not shown) [Example 151, 3-Isopropyl-4-(4-(4-(methoxymethyl)phenyl)-1,3,5-triazin-2-yl)-N-(4-methyl-1-azabicyclo[3.2.2]nonan-4-yl)piperazine-1-carboxamide]	1000	9840	–	–	–	–
–	–	27.8	3.52	87.2	COCCOc1ccc(-c2ccc(C(C)(C)NC(=O)OC3CCN4CCC3CC4)nc2)cc1 (single isomer, unassigned) [Example 348, 1-Azabicyclo[3.2.2]nonan-4-yl 2-(5-(4-(2-methoxyethoxy)phenyl)pyridin-2-yl)propan-2-ylcarbamate]	1000	≥ 10000	–	–	–	–
0.544	1.9	3.91	–	–	COCCOc1ccc(-c2ccc(C(C)(C)NC(=O)NC3(C)CCN4CCC3CC4)cc2)cc1 (stereo not shown) [Example 160, 1-(2-(4′-(2-Methoxyethoxy)-[1,1′-biphenyl]-4-yl)propan-2-yl)-3-(4-methyl-1-azabicyclo[3.2.2]nonan-4-yl)urea]	1000	1000	–	–	–	–
0.0849	17.8	0.553	–	–	CC1(NC(=O)C2(F)CCN(c3nccc(OCc4ccc(F)cc4)n3)CC2)CCN2CCC1CC2 (stereo not shown) [Example 124, 4-Fluoro-1-(4-((4-fluorobenzyl)oxy)pyrimidin-2-yl)-N-(4-methyl-1-azabicyclo[3.2.2]nonan-4-yl)piperidine-4-carboxamide]	100	3420	–	–	–	–
0.109	10.5	0.931	–	–	COCCCOc1ccc(-c2nc(N3CCC(C(=O)NC4(C)CCN5CCC4CC5)CC3)ncc2F)cc1 (stereo not shown) [Example 62, 1-(5-Fluoro-4-(4-(3-methoxypropoxy)phenyl)pyrimidin-2-yl)-N-(4-methyl-1-azabicyclo[3.2.2]nonan-4-yl)piperidine-4-carboxamide]	100	2390	–	–	–	–
0.497	1.75	1.59	–	–	COCCCOc1ccc(-c2ccc(C3(NC(=O)NC4(C)CCN5CCC4CC5)CC3)cc2)cc1 (stereo not shown) [Example 177, 1-(1-(4′-(3-Methoxypropoxy)-[1,1′-biphenyl]-4-yl)cyclopropyl)-3-(4-methyl-1-azabicyclo[3.2.2]nonan-4-yl)urea]	≥ 10000	≥ 10000	–	–	–	–

The next lines start with the molecule.

SMILES	IC50 [2, 7] [nM]	IC50 [3, 8] [nM]	IC50 [4] [nM]	IC50 ([2]; C32 human melanoma cells, read-out: GM3 C32 IC50) [nM]	IC50 ([3]; B16 mouse melanoma cells, read-out: GM3 B16 IC50) [nM]	IC50 [1, 6] [nM]	IC50 [5, 9] [nM]	IC50 [1, 10] [nM]	IC50 [2, 11] [nM]	IC50 [3, 12] [nM]	IC50 [5, 13] [nM]
CC(C)(C)CCS(=O)(=O)c1ccc(C#CC(C)(C)NC(=O)OC2CN3CCC2CC3)cc1 (stereo not shown) [Example 334, Quinuclidin-3-yl (4-(4-((3,3-dimethylbutyl)sulfonyl)phenyl)-2-methylbut-3-yn-2-yl)carbamate]	–	–	80.2	–	–	–	–	≥ 10000	11.8	317	3280
CC1CN(c2cccc(-c3ccccc3)c2)CCN1C(=O)NC1(C)CCN2CCC1CC2 (stereo not shown) [Example 30, 4-([1,1′-Biphenyl]-3-yl)-2-methyl-N-(4-methyl-1-azabicyclo[3.2.2]nonan-4-yl)piperazine-1-carboxamide]	63.9	864	376	–	–	1000	7640	–	–	–	–
COCCCOc1ccc(-c2ccnc(N3CCC(F)(C(=O)NC4(C)CN5CCC4CC5)CC3)n2)cc1 (stereo not shown) [Example 76, 4-Fluoro-1-(4-(4-(3-methoxypropoxy)phenyl)pyrimidin-2-yl)-N-(3-methylquinuclidin-3-yl)piperidine-4-carboxamide]	0.141	58.7	1.34	–	–	1000	3870	–	–	–	–
COCCOc1ccc(-c2ccc(C(C)(C)NC(=O)N[C@@]3(C)CN4CCC3CC4)cc2)cc1 [Example 157, (R)-1-(2-(4′-(2-Methoxyethoxy)-[1,1′-biphenyl]-4-yl)propan-2-yl)-3-(3-methylquinuclidin-3-yl)urea]	42	538	228	–	–	3160	3160	–	–	–	–
CC1(NC(=O)C2CCN(c3nccc(-c4ccc(F)cc4)n3)CC2)CCN2CCC1CC2 (stereo not shown) [Example 41, 1-(4-(4-Fluorophenyl)pyrimidin-2-yl)-N-(4-methyl-1-azabicyclo[3.2.2]nonan-4-yl)piperidine-4-carboxamide]	0.124	9.7	1.14	–	–	20	6440	–	–	–	–
CNC(=O)c1ccc(-c2ccc(C(C)(C)NC(=O)NC3(C)CN4CCC3CC4)cc2)cc1 (stereo not shown) [Example 253, N-Methyl-4′-(2-(3-(3-methylquinuclidin-3-yl)ureido)propan-2-yl)-[1,1′-biphenyl]-4-carboxamide]	201	2000	751	–	–	2000	2000	–	–	–	–
CC(C)(NC(=O)OC1CN2CCC1CC2)c1ccc(-c2ccc(N3CCOCC3)cc2)cc1 (stereo not shown) [Example 231, Quinuclidin-3-yl (2-(4′-morpholino-[1,1′-biphenyl]-4-yl)propan-2-yl)carbamate]	–	–	71	–	–	–	–	2000	15	230	2000
O=C(N[C@@H]1CN2CCC1CC2)C1(F)CCN(c2nccc(-c3ccc(OCCF)cc3)n2)CC1 [Example 88, (S)-4-Fluoro-1-(4-(4-(2-fluoroethoxy)phenyl)pyrimidin-2-yl)-N-(quinuclidin-3-yl)piperidine-4-carboxamide]	0.252	56.8	1.68	–	–	1000	≥ 10000	–	–	–	–
COCc1ccc(-c2nc(N3CCC(C(=O)NC4(C)CN5CCC4CC5)CC3)ncc2F)cc1 (stereo not shown) [Example 61, 1-(5-Fluoro-4-(4-(methoxymethyl)phenyl)pyrimidin-2-yl)-N-(3-methylquinuclidin-3-yl)piperidine-4-carboxamide]	0.13	52.4	1.41	–	–	46.4	8540	–	–	–	–

Source: US12060349B2, “Glucosylceramide synthase inhibitors” (Genzyme Corporation, priority 2012, dated 2024)
